{"source": "patent US6423737B1", "about": "“Benzamidoxime prodrugs as antipneumocystic agents” (The University of North Carolina at Chapel Hill, priority 1995, dated 2002)", "key": {"[1]": {"assay": "Acute toxicity of single doses in normal rats", "format": "in vivo", "conditions": "normal rats; for time after injection to recovery / persistence of symptoms: single IV 20 μmol/kg; for relative acute toxicity among the diamidines: single IV injection"}, "Pneumocystis carinii [2]": {"system": "Pneumocystis carinii", "conditions": "cited from earlier work; for intravenous activity of diamidines (in words): previously evaluated by a different score method; for mean histological score, IV DOSING: tail vein injection daily for 14 days @ 10 mg/kg, scores range from 0.5 (low infection) to 4.0"}, "Pneumocystis carinii [3]": {"system": "Pneumocystis carinii", "assay": "Anti-P. carinii activity in immunosuppressed rat model (lung cyst counts)", "format": "in vivo, Sprague-Dawley rats", "conditions": "for anti-P. carinii activity when given orally (in words): Formula I series, orally by gavage once daily for 14 days; for % saline, ORAL DOSING: oral by gavage daily for 14 days @33 μmol/kg body weight; for activity on oral administration, furan series (in words): orally by gavage", "experimental": "The activity of the compounds of Formula I against P. carinii was carried out according to an established method. See Tidwell, R. R., et al., J. Protozool. […] Agents Chemother. […] Agents Chemother. […] Briefly, male Sprague-Dawley rats (barrier raised, not certified virus-free) weighing 150-200 g each, were obtained (Hilltop Laboratories, Scottsdale, Pa.). Immediately upon arrival, the animals were caged individually and begun on a low protein (8%) diet and on drinking water containing tetracycline (0.5 mg/mL) and dexamethasone (1.0 μ/mL). This regimen was continued for eight weeks. At the beginning of the seventh week, animals were divided into groups of 8 or more, and the test compounds were administered for 14 days. Saline and pentamidine-treated groups were included as controls.\nAnimals were sacrificed at the end of the eighth week by chloroform inhalation. The left lung was weighed, ground through a No. 60 wire mesh screen, and suspended 1:10 (wt/vol) in 10 mM β-mercaptoethanol-Hanks' balanced salts solution (HBSS) without cations. Slides were prepared by spotting 5 μL of lung homogenate diluted 1:10 in HBSS with β-mercaptoethanol and allowed to air dry. The slides were stained with cresyl violet, and the cysts were counted by a blinded protocol. The number of cysts per gram of original lung tissue was calculated, and the groups were reported as the percentages of saline-treated controls.\nThe anti-P. carinii value for each compound is expressed as the percent of cysts in the treatment group as compared to the saline control group. Values are also compared to a positive control group consisting of animals treated intravenously with pentamidine."}, "[4]": {"assay": "Subjective scale of toxicity and tolerance during treatment in the immunosuppressed rat model", "conditions": "for Toxicity, IV DOSING / Toxicity, ORAL DOSING: subjective scale; for acute toxicity generally noted for diamidines, on intravenous administration: immunosuppressed rat model", "from_the_text": "^b subjective scale of toxicity. […] In general, the larger the value the more severe the toxicity, with values greater than 2 indicating the death of some animals"}, "[5]": {"conditions": "22.0 μmol/kg/day, values greater than 2 indicate death of some animals"}}, "note": "Entries after “also recorded” stand apart in the source; their conditions may differ."}
{"smiles": "COc1cc(C(=N)N)ccc1OCCCOc1ccc(C(=N)N)cc1OC", "note": "[Compound 8, 1,3-bis(2′-methoxy-4′-amidinophenoxy)propane, reference compound]", "values": [{"measurement": "observed acute toxicity after single intravenous injection", "setting": "[1]; 10 μmol/kg", "value": "perceptible hypoactivity"}, {"measurement": "time after injection to recovery / persistence of symptoms", "setting": "[1]", "value": "> 15", "unit": "min"}, {"measurement": "relative acute toxicity among the diamidines", "setting": "[1]", "value": "even more acutely toxic than the other two diamidines tested"}, {"measurement": "intravenous activity of diamidines (in words)", "setting": "Pneumocystis carinii [2]", "value": "previously shown to have intravenous activity"}, {"measurement": "anti-P. carinii activity when given orally (in words)", "setting": "Pneumocystis carinii [3]", "value": "significant oral activity"}]}
{"smiles": "N=C(N)c1ccc(OCCCCCOc2ccc(C(=N)N)cc2)cc1", "note": "[Compound 2, 1,5-bis(4′-amidinophenoxy)pentane, reference compound]", "values": [{"measurement": "observed acute toxicity after single intravenous injection", "setting": "[1]; 20 μmol/kg", "value": "appeared hypotensive, with rapid paling of extremities, hypoactivity and dyspnea, which progressed to slight cyanosis of extremities"}, {"measurement": "observed acute toxicity after single intravenous injection", "setting": "[1]; 40 μmol/kg", "value": "immediate sever hind limb contractions, increased salivation, dyspnea, initial paling of extremities which progressed to marked cyanosis and profound hypoactivity"}, {"measurement": "time after injection to recovery / persistence of symptoms", "setting": "[1]", "value": "≤ 5", "unit": "min"}, {"measurement": "mean histological score, IV DOSING", "setting": "Pneumocystis carinii [2]", "value": 1.1}, {"measurement": "% saline, ORAL DOSING", "setting": "Pneumocystis carinii [3]; Table 2", "value": 133.09, "unit": "% saline"}, {"measurement": "% saline, IV DOSING", "setting": "Pneumocystis carinii [3]; Table 2, tail vein injection daily for 14 days at 22 mg/kg body weight", "value": 0.87, "unit": "% saline"}, {"measurement": "% saline, ORAL DOSING", "setting": "Pneumocystis carinii [3]; Table 3", "value": 133.09, "unit": "% saline"}]}
{"smiles": "CON=C(N)c1ccc(-c2ccc(-c3ccc(C(N)=NOC)cc3)o2)cc1", "note": "[Compound 11, 2,5-bis-[4-amidinophenyl]furanbis-O-methylamidoxime]", "values": [{"measurement": "Toxicity, IV DOSING", "setting": "[4]; [5]", "value": 0}, {"measurement": "tolerance at the injection site", "setting": "[4]; intravenous, 22.0 μmol/kg/day", "value": "well-tolerated"}, {"measurement": "acute toxicity generally noted for diamidines, on intravenous administration", "setting": "[4]; intravenous", "value": "absent"}, {"measurement": "Toxicity, ORAL DOSING", "setting": "[4]; 5.5 μmol/kg/day", "value": 0}, {"measurement": "Toxicity, ORAL DOSING", "setting": "[4]; 11.0 μmol/kg/day", "value": 0}, {"measurement": "Toxicity, ORAL DOSING", "setting": "[4]; 22.0 μmol/kg/day", "value": 0}, {"measurement": "Toxicity, ORAL DOSING", "setting": "[4]; 33.0 μmol/kg/day", "value": 0}, {"measurement": "activity on oral administration, furan series (in words)", "setting": "Pneumocystis carinii [3]; immunosuppressed rat model", "value": "effective; also recorded: more effective than the bis-amidoxime 10"}, {"measurement": "drug uptake on oral dosage (suggested by the values for the cyst counts)", "setting": "Pneumocystis carinii [3]; oral dosage, immunosuppressed rat model", "value": "superior to that of the parent compound 9"}]}
{"smiles": "CCON=C(N)c1ccc(-c2ccc(-c3ccc(C(N)=NOCC)cc3)o2)cc1", "note": "[Compound 12, 2,5-bis-[4-amidinophenyl]furanbis-O-ethylamidoxime]", "values": [{"measurement": "Toxicity, IV DOSING", "setting": "[4]; [5]", "value": "+1"}, {"measurement": "Toxicity, ORAL DOSING", "setting": "[4]; 33.0 μmol/kg/day", "value": 0}]}
{"smiles": "N=C(N)c1ccc(OCCCOc2ccc(C(=N)N)cc2)cc1", "note": "[Compound 6, 1,3-bis(4′-amidinophenoxy)propane]", "values": [{"measurement": "relative acute toxicity among the diamidines", "setting": "[1]", "value": "less acutely toxic than pentamidine"}, {"measurement": "intravenous activity of diamidines (in words)", "setting": "Pneumocystis carinii [2]", "value": "previously shown to have intravenous activity"}, {"measurement": "mean histological score, IV DOSING", "setting": "Pneumocystis carinii [2]", "value": 0.9}, {"measurement": "anti-P. carinii activity when given orally (in words)", "setting": "Pneumocystis carinii [3]", "value": "reduced or no anti-P. carinii activity"}]}
{"smiles": "NC(=NO)c1ccc(-c2ccc(-c3ccc(C(N)=NO)cc3)o2)cc1", "note": "[Compound 10, 2,5-bis-[4-amidinophenyl]furanbis-amidoxime]", "values": [{"measurement": "Toxicity, IV DOSING", "setting": "[4]; 0.3 μmol/kg/day", "value": 0}, {"measurement": "Toxicity, IV DOSING", "setting": "[4]; 2.7 μmol/kg/day", "value": 0}, {"measurement": "Toxicity, IV DOSING", "setting": "[4]; 5.5 μmol/kg/day", "value": "+1"}, {"measurement": "Toxicity, IV DOSING", "setting": "[4]; 11.0 μmol/kg/day", "value": "+1"}, {"measurement": "Toxicity, IV DOSING", "setting": "[4]; [5]", "value": "+1"}, {"measurement": "inflammation and necrosis at the injection site", "setting": "[4]; intravenous, 5.5 μmol/day", "value": "considerable inflammation and necrosis of the tail vein at the injection site"}, {"measurement": "acute toxicity generally noted for diamidines, on intravenous administration", "setting": "[4]; intravenous", "value": "absent"}, {"measurement": "Toxicity, ORAL DOSING", "setting": "[4]; 5.5 μmol/kg/day", "value": 0}, {"measurement": "Toxicity, ORAL DOSING", "setting": "[4]; 11.0 μmol/kg/day", "value": 0}, {"measurement": "Toxicity, ORAL DOSING", "setting": "[4]; 33.0 μmol/kg/day", "value": 0}, {"measurement": "activity on oral administration, furan series (in words)", "setting": "Pneumocystis carinii [3]; immunosuppressed rat model", "value": "effective"}, {"measurement": "drug uptake on oral dosage (suggested by the values for the cyst counts)", "setting": "Pneumocystis carinii [3]; rat, in vivo, po", "value": "superior to that of the parent compound 9"}]}
{"smiles": "N=C(N)c1ccc(OCCCCOc2ccc(C(=N)N)cc2)cc1", "note": "[Compound 4, 1,4-bis(4′-amidinophenoxy)butane, reference compound]", "values": [{"measurement": "intravenous activity of diamidines (in words)", "setting": "Pneumocystis carinii [2]", "value": "previously shown to have intravenous activity"}, {"measurement": "mean histological score, IV DOSING", "setting": "Pneumocystis carinii [2]", "value": 0.5}, {"measurement": "anti-P. carinii activity when given orally (in words)", "setting": "Pneumocystis carinii [3]", "value": "reduced or no anti-P. carinii activity"}, {"measurement": "% saline, ORAL DOSING", "setting": "Pneumocystis carinii [3]; Table 3", "value": 46.03, "unit": "% saline"}]}
